Source: patent US20230074252A1, “DOSAGES AND METHODS FOR TREATING PULMONARY ARTERIAL HYPERTENSION WITH RODATRISTAT” (Altavant Sciences GmbH, priority 2020, published 2023)
Where “and” joins values, the source holds several entries; their conditions need not be identical. Equal entries are not always repeated.

Assays:
[1] = Metabolic stability in human hepatocytes; assay type: in vitro ADME; settings: 2 h incubation
Procedure: (§1) The metabolic stability of RVT-1201 was measured in vitro in hepatocytes, liver microsomes, lung microsomes, intestinal S9, lung S9, liver S9 and whole blood. The major metabolite detected in incubations with human hepatocytes was KAR5417 (KRS-02). RVT-1201 was rapidly metabolized to form KAR5417, with <5% remaining after a 2 h incubation. In heat deactivated rat hepatocytes, <5% RVT-1201 remained after 2 h incubation in the same study. Therefore, RVT-1201 metabolism (and KAR5417 formation) are not dependent on oxidative or conjugative enzymatic processes. Formation of KAR5417 from RVT-1201 is a de-esterification process, which implicates an esterase or esterases as the major mechanism. The enzyme(s) responsible for RVT-1201 metabolism to form KAR5417 has not been identified but are considered to be carboxylesterase(s). In addition, RVT-1201 metabolism and KAR5417 formation were investigated in rat and human whole blood(XT184028).

[2] = Stability in heat deactivated rat hepatocytes; assay type: in vitro ADME; settings: 2 h incubation
Procedure: as §1

[3] = Pro-drug to active ratio in portal versus peripheral blood; assay type: in vivo; settings: rat
Source text: (§2) Calculation of Cmax, u, portal uses plasma Cmax, fraction of an oral dose absorbed (Fa) and measured unbound fraction in blood. For rodatristat, experimentally derived values were used for Fa determined in a rat 14C study (20%) and in vitro binding to human plasma (99.1%) and blood:plasma distribution (RB, 0.72). Walsky et al proposed a threshold where the ratio of Cmax, u, portal/Ki of <0.1 is associated with low risk. […] In the rat, the RE:R is ˜3-fold higher in portal blood compared to the periphery.

[4] = Stability in human whole blood; assay type: in vitro ADME
Procedure: (§3) However, in human whole blood incubations, no loss of RVT-1201 was observed. […] Therefore, metabolism of RVT-1201 was assigned to a cytosolic carboxylesterase (CES1) within the PBPK model. Although the enzyme responsible for RVT-1201 elimination and KAR5417 formation has not been identified, CES1 was selected to represent the enzymatic metabolism of RVT-1201 for this fit-for-purpose PBPK model.

[5] = Stability in rat whole blood; assay type: in vitro ADME; settings: 2 μM, 15 min
Procedure: as §1

[6] = Intrinsic clearance in liver S9 fractions; assay type: in vitro ADME; settings: human, liver S9 fraction
Procedure: as §1, §3

[7] = Blood:plasma distribution; assay type: in vitro ADME; settings: whole blood; read-out: Blood:plasma distribution (RB)
Source text: as §2

[8] = Passive permeability in Caco 2 and MDCK cell studies; assay type: in vitro ADME
Source text: Consequently, the elimination of rodatristat into bile may be impacted by co-administration with agents that are BCRP inhibitors.

CYP2C8 = target: T1, CYP2C8 (Homo sapiens, UniProt P10632); assay: Unbound hepatic portal vein Cmax versus Ki analysis (Walsky et al); parameters: from tissue; host or cells: pooled human liver microsomes (n=200 donors)
T1 sequence (P10632 1-490): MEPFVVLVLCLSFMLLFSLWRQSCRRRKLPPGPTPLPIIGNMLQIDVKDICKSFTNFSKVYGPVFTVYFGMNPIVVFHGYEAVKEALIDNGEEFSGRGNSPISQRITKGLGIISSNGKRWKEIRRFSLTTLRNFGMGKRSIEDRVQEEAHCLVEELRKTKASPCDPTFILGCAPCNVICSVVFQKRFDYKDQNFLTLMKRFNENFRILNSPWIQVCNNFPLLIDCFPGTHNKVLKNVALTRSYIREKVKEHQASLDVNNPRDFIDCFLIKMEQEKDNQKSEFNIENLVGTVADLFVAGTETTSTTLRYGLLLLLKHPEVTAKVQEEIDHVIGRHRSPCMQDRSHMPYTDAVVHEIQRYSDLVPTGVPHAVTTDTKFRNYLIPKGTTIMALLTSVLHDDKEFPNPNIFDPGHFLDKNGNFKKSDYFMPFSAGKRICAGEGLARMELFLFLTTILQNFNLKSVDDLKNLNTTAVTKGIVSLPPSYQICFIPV
Source text: Walsky, et al^i evaluated criteria to assess the potential for approved drugs to elicit clinically-meaningful drug interactions via inhibition of 2C8. Following their evaluation of 209 compounds they opined that unbound hepatic portal vein concentration (Cmax, u, portal) compared to the in vitro Ki provides additional insight beyond peripheral Cmax (used for FDA criteria) as it reflects the unbound drug concentration entering the liver.
as §2

Elimination route in rat = assay type: in vivo
Source text: The metabolism of rodatristat ethyl is predominantly by esterase mediated hydrolysis of the ester pro-drug moiety to rodatristat in liver tissue preparations from human, rat, dog, and cynomolgus monkey, and intestinal and lung tissues from rat and human. Hydrolysis of rodatristat ethyl was also observed in rat blood, and to a much lesser extent in dog and human blood.

Row | Remaining after incubation with human hepatocytes [1] | Remaining after incubation in heat deactivated rat hepatocytes [2] | RE:R ratio higher in portal blood compared to the periphery [3] | Loss in human whole blood incubations [4] | Loss in rat blood [5] | microsomal CLint [6] | blood plasma ratio [7] | Passive permeability [8] | Cmax, u, portal/Ki (CYP2C8) | Elimination route (Elimination route in rat) | Structure (SMILES)
1 | < 5% | < 5% | ~3 fold | no loss | Complete loss | 20 µL/min/mg | – | – | – | – | CCOC(=O)[C@@H]1CC2(CCN(c3cc(O[C@H](c4ccc(Cl)cc4-c4ccccc4)C(F)(F)F)nc(N)n3)CC2)CN1 [Rodatristat ethyl, (S)-ethyl 8-(2-amino-6-((R)-1-(5-chloro-[1,1′-biphenyl]-2-yl)-2,2,2-trifluoroethoxy)pyrimidin-4-yl)-2,8-diazaspiro[4.5]decane-3-carboxylate]
2 | – | – | – | – | – | – | 0.72 | very low passive permeability | 0.128 and < 0.128 | largely eliminated unchanged in bile | Nc1nc(O[C@H](c2ccc(Cl)cc2-c2ccccc2)C(F)(F)F)cc(N2CCC3(CC2)CN[C@H](C(=O)O)C3)n1 [Rodatristat, (S)-8-(2-amino-6-((R)-1-(5-chloro-[1,1′-biphenyl]-2-yl)-2,2,2-trifluoroeth-oxy)pyrimidin-4-yl)-2,8-diazaspiro[4.5]decane-3-carboxylic acid]
